Consider 20 compounds from US9796711B2, “Substituted pyrazolo[3,4-b]pyridin-6-carboxylic acids and method of use” (AbbVie S.àr.l., priority 2015, dated 2017).

Experiment [1] addresses T1, ΔF508-CFTR (Homo sapiens, UniProt P13569, DEL508-508).
T1 construct: host or cells: CFBE41o-, doxycycline-inducible
Description: CFTR cell surface levels using HRP-tagged ΔF508-CFTR expressing CFBE cells, in the presence of a co-corrector. The class given is cell-based. To be noted: HRP-tagged ΔF508-CFTR expressing CFBE cells, in the presence of 3 μM co-corrector; for EC50: read-out: EC50. Put shortly:
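Cells were seeded with 0.5 μg/mL doxycycline and held 68 h at 37 °C. Test compounds plus 3 μM co-corrector (final 0.1% DMSO) were then added for 20 h at 33 °C. Washed cells received HRP substrate, and luminescence was normalized between DMSO and 3 μM co-corrector controls.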

Experiment [2] has as its target T1, ΔF508-CFTR. Description: CFTR cell surface levels using HRP-tagged ΔF508-CFTR expressing CFBE cells, intrinsic corrector capacity. Conditions: for EC50: read-out: EC50. It counts as cell-based. Summed up: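 Here the cells express ΔF508-CFTR with horseradish peroxidase inserted in extracellular loop 4, so only rescued channel at the surface gives luminescent signal. Compounds act on their own, 20 h at the reduced temperature of 33 °C; values are percent activity relative to DMSO and a 3 μM corrector.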

[3] abbreviates: HRP-tagged ΔF508-CFTR expressing CFBE cells, intrinsic corrector capacity (no co-corrector), 33° C., 20 hours.
The mark [4] stands for this setting: HRP-tagged ΔF508-CFTR CFBE41o- cells, compounds alone (intrinsic corrector capacity), 20 hours at 33° C., positive control 3 μM corrector.
The mark [5] stands for this setting: HRP-tagged ΔF508-CFTR CFBE41o- cells, compounds alone (intrinsic corrector capacity), 20 hours at 33° C.
The mark [6] stands for this setting: HRP-tagged ΔF508-CFTR CFBE cells, compound alone (intrinsic corrector capacity), 20 hours at 33° C.

T1 sequence (P13569 with tags, fused parts or gaps DEL508-508): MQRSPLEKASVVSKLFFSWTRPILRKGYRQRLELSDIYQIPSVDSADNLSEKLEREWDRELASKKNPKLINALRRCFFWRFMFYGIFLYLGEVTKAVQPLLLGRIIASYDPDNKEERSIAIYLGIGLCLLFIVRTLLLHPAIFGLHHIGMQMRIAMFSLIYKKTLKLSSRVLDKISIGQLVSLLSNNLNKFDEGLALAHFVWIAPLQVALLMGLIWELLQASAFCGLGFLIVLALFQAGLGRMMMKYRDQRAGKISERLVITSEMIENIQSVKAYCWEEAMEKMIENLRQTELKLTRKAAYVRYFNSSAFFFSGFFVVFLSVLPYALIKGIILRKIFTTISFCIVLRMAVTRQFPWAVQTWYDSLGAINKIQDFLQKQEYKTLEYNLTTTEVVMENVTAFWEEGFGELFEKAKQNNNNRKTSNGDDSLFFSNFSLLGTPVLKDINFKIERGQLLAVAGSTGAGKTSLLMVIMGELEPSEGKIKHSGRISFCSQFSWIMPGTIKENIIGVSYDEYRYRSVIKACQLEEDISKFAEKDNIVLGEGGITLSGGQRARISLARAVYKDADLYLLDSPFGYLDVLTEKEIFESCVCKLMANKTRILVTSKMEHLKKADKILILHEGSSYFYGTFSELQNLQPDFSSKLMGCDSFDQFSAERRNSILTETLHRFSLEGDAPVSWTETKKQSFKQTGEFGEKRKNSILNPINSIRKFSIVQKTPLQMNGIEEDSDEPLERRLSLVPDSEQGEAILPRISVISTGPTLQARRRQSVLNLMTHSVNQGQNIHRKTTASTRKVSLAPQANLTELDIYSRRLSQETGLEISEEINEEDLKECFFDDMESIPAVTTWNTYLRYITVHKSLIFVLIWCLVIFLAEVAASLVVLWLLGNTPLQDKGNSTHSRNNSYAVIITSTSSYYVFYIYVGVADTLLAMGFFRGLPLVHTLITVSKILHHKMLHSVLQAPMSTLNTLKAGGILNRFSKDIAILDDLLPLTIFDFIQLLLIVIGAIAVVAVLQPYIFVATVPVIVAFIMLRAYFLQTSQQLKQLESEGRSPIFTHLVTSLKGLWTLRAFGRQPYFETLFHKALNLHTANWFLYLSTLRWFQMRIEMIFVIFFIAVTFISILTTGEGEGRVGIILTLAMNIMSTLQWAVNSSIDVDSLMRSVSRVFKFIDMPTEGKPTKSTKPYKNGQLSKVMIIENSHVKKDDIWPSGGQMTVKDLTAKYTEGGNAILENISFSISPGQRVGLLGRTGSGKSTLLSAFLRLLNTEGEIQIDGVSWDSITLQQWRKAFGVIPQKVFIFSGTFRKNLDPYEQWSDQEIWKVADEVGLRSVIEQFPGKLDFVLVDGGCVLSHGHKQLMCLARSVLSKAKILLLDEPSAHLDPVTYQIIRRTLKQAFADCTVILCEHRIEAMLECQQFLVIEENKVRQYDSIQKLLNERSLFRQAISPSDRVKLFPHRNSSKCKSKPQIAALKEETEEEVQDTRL

With `O=C(O)c1cc(N2CCCOCC2)c2c(C3CCC3)nn(-c3ccccc3)c2n1` [compound 545, 3-cyclobutyl-4-(1,4-oxazepan-4-yl)-1-phenyl-1H-pyrazolo[3,4-b]pyridine-6-carboxylic acid], in experiment [1], the “% Activation” value is recorded as 247.05% and the EC50 is 563 nM. In addition, in experiment [2] (setting [3]), the “% Activation” value was found to be 109.4% and the EC50 turned out to be 1150 nM.
In the case of `Cc1cccc(-n2nc(C(C)C)c3c(-c4ccc(N5CCOCC5)cc4)cc(C(=O)O)nc32)c1` [compound 20, 1-(3-methylphenyl)-4-[4-(morpholin-4-yl)phenyl]-3-(propan-2-yl)-1H-pyrazolo[3,4-b]pyridine-6-carboxylic acid], the “% Activation” value is 450.9% in experiment [1] and 199.98% in experiment [2] (setting [4]). For the same compound, the values for the EC50 in experiment [1] and in experiment [2] (setting [5]) were 371 nM and 522 nM, respectively.
Turning to `COCC1(OC)CCN(c2cc(C(=O)O)nc3c2c(C2CCC2)nn3-c2ccccc2)CC1` [compound 526, 3-cyclobutyl-4-[4-methoxy-4-(methoxymethyl)piperidin-1-yl]-1-phenyl-1H-pyrazolo[3,4-b]pyridine-6-carboxylic acid], in experiment [1], the “% Activation” value was 284.5% and the EC50 came to 370 nM. For the same compound, in experiment [2] (setting [3]), the “% Activation” value amounted to 97.7% and the EC50 came out at 406 nM.
Taken in the same sequence, the figures for `CCN(CC)C1CCN(c2cc(C(=O)O)nc3c2c(C2CCC2)nn3-c2ccccc2)CC1` [compound 689, 3-cyclobutyl-4-[4-(diethylamino)piperidin-1-yl]-1-phenyl-1H-pyrazolo[3,4-b]pyridine-6-carboxylic acid] were 329%, 803 nM, 182.7% and 1570 nM.
Turning to `O=C(O)c1cc(N2CCC(N3CCOCC3)CC2)c2c(C3CCC3)nn(-c3ccc(OC(F)F)cc3)c2n1` [compound 914, 3-cyclobutyl-1-[4-(difluoromethoxy)phenyl]-4-[4-(morpholin-4-yl)piperidin-1-yl]-1H-pyrazolo[3,4-b]pyridine-6-carboxylic acid], in experiment [1], the “% Activation” value is on record as 429.25% and the EC50 came out at 173 nM. In addition, in experiment [2] (setting [6]), the “% Activation” value was found to be 228.2% and the EC50 came out at 546 nM.
Consider `COCCN(C)c1ncc(-c2cc(C(=O)O)nc3c2c(C(C)C)nn3C2CCCCC2)cn1` [compound 237, 1-cyclohexyl-4-{2-[(2-methoxyethyl)(methyl)amino]pyrimidin-5-yl}-3-(propan-2-yl)-1H-pyrazolo[3,4-b]pyridine-6-carboxylic acid], for which the results for the “% Activation” value in experiment [1] and in experiment [2] (setting [4]) were 372.97% and 227%, respectively. Moreover, the half-maximal effective concentration (EC50) was determined as 324 nM in experiment [1] and 510 nM in experiment [2] (setting [5]).
The corresponding values for `CC(C)(C)OC(=O)N1CCCC1c1nn(-c2ccccc2)c2nc(C(=O)O)cc(-c3ccc(N4CCOCC4)cc3)c12` (centres unmarked) [compound 76] are 244.2%, 117.9%, 430 nM and 835 nM.
On to `CC(C)c1nn(C2CCCC2)c2nc(C(=O)O)cc(-c3ccc(N4CCOCC4)cc3)c12` [compound 69, 1-cyclopentyl-4-[4-(morpholin-4-yl)phenyl]-3-(propan-2-yl)-1H-pyrazolo[3,4-b]pyridine-6-carboxylic acid], for which the “% Activation” value is reported as 366.8% in experiment [1] and 150.25% in experiment [2] (setting [4]). In addition, the EC50 worked out at 993 nM in experiment [1] and 970 nM in experiment [2] (setting [5]).
For `CNC[C@@H]1CCN(c2cc(C(=O)O)nc3c2c(C2CCC2)nn3-c2ccccc2)C1` [compound 676, 3-cyclobutyl-4-{(3S)-3-[(methylamino)methyl]pyrrolidin-1-yl}-1-phenyl-1H-pyrazolo[3,4-b]pyridine-6-carboxylic acid], the entries for the “% Activation” value in experiment [1] and in experiment [2] (setting [3]) were 164.55% and 35.03%, respectively. The figures for the EC50 in experiment [1] and in experiment [2] (setting [3]) were 892 nM and 5000 nM, respectively.
With `Cc1nn(-c2ccccc2)c2nc(C(=O)O)cc(N3CC4(CCCC4)C3)c12` [compound 307, 4-(2-azaspiro[3.4]octan-2-yl)-3-methyl-1-phenyl-1H-pyrazolo[3,4-b]pyridine-6-carboxylic acid], the “% Activation” value amounted to 233.4% in experiment [1] and 77.423% in experiment [2] (setting [4]). The EC50 in experiment [1] stood at 1540 nM; in experiment [2] (setting [5]), 1920 nM.
Consider `N#CC1CCN(c2ccc(-c3cc(C(=O)O)nc4c3c(C3CC(F)(F)C3)nn4-c3ccccc3)cn2)CC1` [compound 420, 4-[6-(4-cyanopiperidin-1-yl)pyridin-3-yl]-3-(3,3-difluorocyclobutyl)-1-phenyl-1H-pyrazolo[3,4-b]pyridine-6-carboxylic acid], for which the entries for the “% Activation” value in experiment [1] and in experiment [2] (setting [3]) were 411.25% and 211.15%, respectively. In addition, the EC50 in experiment [1] came out at 289 nM; in experiment [2] (setting [3]), 534 nM.
For `CC(C)c1nn(C2CCCCC2)c2nc(C(=O)O)cc(-c3ccc(N4CCC(C)(C#N)CC4)nc3)c12` [compound 203, 4-[6-(4-cyano-4-methylpiperidin-1-yl)pyridin-3-yl]-1-cyclohexyl-3-(propan-2-yl)-1H-pyrazolo[3,4-b]pyridine-6-carboxylic acid], the “% Activation” value was 361.75% in experiment [1] and 162.5% in experiment [2] (setting [4]). The values for the EC50 in experiment [1] and in experiment [2] (setting [5]) were 756 nM and 843 nM, respectively.
As for `CN1CCC[C@H](Oc2cc(C(=O)O)nc3c2c(C2CCC2)nn3-c2ccccc2)C1` [compound 494, 3-cyclobutyl-4-{[(3S)-1-methylpiperidin-3-yl]oxy}-1-phenyl-1H-pyrazolo[3,4-b]pyridine-6-carboxylic acid], in experiment [1], the “% Activation” value came to 196.7% and the EC50 is 1160 nM. In experiment [2] (setting [3]), the “% Activation” value is 65.56% and the EC50 stood at 3280 nM.
The corresponding values for `O=C(O)c1cc(N2CC(OCC(F)F)C2)c2c(C3CCC3)nn(-c3ccccc3)c2n1` [compound 513, 3-cyclobutyl-4-[3-(2,2-difluoroethoxy)azetidin-1-yl]-1-phenyl-1H-pyrazolo[3,4-b]pyridine-6-carboxylic acid] are 349.6%, 472 nM, 141.7% and 371 nM.
With `Cc1nn(-c2ccccc2)c2nc(C(=O)O)cc(N3CCCC4(CC4)C3)c12` [compound 310, 4-(5-azaspiro[2.5]octan-5-yl)-3-methyl-1-phenyl-1H-pyrazolo[3,4-b]pyridine-6-carboxylic acid], the figures for the “% Activation” value in experiment [1] and in experiment [2] (setting [4]) were 199.65% and 88.73%, respectively. In addition, the figures for the EC50 in experiment [1] and in experiment [2] (setting [5]) were 1610 nM and 1890 nM, respectively.
Take `CCN(CC)CC1(N2CC(Oc3cc(C(=O)O)nc4c3c(C3CCC3)nn4-c3ccccc3)C2)COC1` [compound 646, 3-cyclobutyl-4-[(1-{3-[(diethylamino)methyl]oxetan-3-yl}azetidin-3-yl)oxy]-1-phenyl-1H-pyrazolo[3,4-b]pyridine-6-carboxylic acid]: in experiment [1], the “% Activation” value is recorded as 198% and the EC50 came to 3330 nM. Also, in experiment [2] (setting [3]), the “% Activation” value amounted to 45.39% and the EC50 was 3330 nM.
As for `COCC1CCN(c2cc(C(=O)O)nc3c2c(C(C)C)nn3C2CCCCC2)CC1` [compound 431, 1-cyclohexyl-4-[4-(methoxymethyl)piperidin-1-yl]-3-(propan-2-yl)-1H-pyrazolo[3,4-b]pyridine-6-carboxylic acid], in experiment [1], the “% Activation” value is given as 416.6% and the EC50 was 425 nM. Also, in experiment [2] (setting [3]), the “% Activation” value came to 198.57% and the EC50 was 543 nM.
As for `Cc1nn(-c2ccccc2)c2nc(C(=O)O)cc(N3CC4CC4C3)c12` (centres unmarked) [compound 304, 4-(3-azabicyclo[3.1.0]hexan-3-yl)-3-methyl-1-phenyl-1H-pyrazolo[3,4-b]pyridine-6-carboxylic acid], the entries for the “% Activation” value in experiment [1] and in experiment [2] (setting [4]) were 254.9% and 98.425%, respectively. The EC50 in experiment [1] was determined as 1990 nM; in experiment [2] (setting [5]) it was 2510 nM.
Consider `O=C(O)c1cc(N2CCC(N3CCOCC3)CC2)c2c(C3CCC3)nn(-c3ccnc(C4CCOCC4)c3)c2n1` [compound 819, 3-cyclobutyl-4-[4-(morpholin-4-yl)piperidin-1-yl]-1-[2-(oxan-4-yl)pyridin-4-yl]-1H-pyrazolo[3,4-b]pyridine-6-carboxylic acid], for which the “% Activation” value is listed as 313.1% in experiment [1] and 174.7% in experiment [2] (setting [3]). Further, the concentration giving a half-maximal response (EC50) in experiment [1] and in experiment [2] (setting [3]) was 3330 nM in each case.
In the case of `CCN1CCN(c2cc(C(=O)O)nc3c2c(C(C)C)nn3-c2ccc(F)cc2)CC1` [compound 772, 4-(4-ethylpiperazin-1-yl)-1-(4-fluorophenyl)-3-(propan-2-yl)-1H-pyrazolo[3,4-b]pyridine-6-carboxylic acid], the “% Activation” value is 226.6% in experiment [1] and 53.82% in experiment [2] (setting [3]). Moreover, the EC50 in experiment [1] amounted to 1360 nM; in experiment [2] (setting [3]), 1670 nM.

The term EC50 denotes the concentration giving half of the maximal effect.
